According to ChEMBL document CHEMBL1201862, “PubChem BioAssay data set” (2004):
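Each compound was tested at five concentrations against cells in 96-well plates for 48 hours. GI50 = concentration required for 50% inhibition of growth.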 Activity calls are given as the source filed them. No stated cut-off is given here; in the data, active = GI50 up to about 1.1 µM and inactive = higher.

Legend:
Experiment in all cases: growth of human tumour cells (NCI), 48 h
786-0 = tested on: 786-0
A498 = tested on: A498
A549 = tested on: A549
ACHN = tested on: ACHN
BT-549 = tested on: BT-549
CAKI-1 = tested on: CAKI-1
CCRF-CEM = tested on: CCRF-CEM
COLO 205 = tested on: COLO 205
DU-145 = tested on: DU-145
EKVX = tested on: EKVX
HCC 2998 = tested on: HCC 2998
HCT-116 = tested on: HCT-116
HCT-15 = tested on: HCT-15
HL-60 = tested on: HL-60
HOP-62 = tested on: HOP-62
HOP-92 = tested on: HOP-92
HT-29 = tested on: HT-29
Hs-578T = tested on: Hs-578T
IGROV-1 = tested on: IGROV-1
K562 = tested on: K562
KM12 = tested on: KM12
LOX IMVI = tested on: LOX IMVI
M14 = tested on: M14
MCF7 = tested on: MCF7
MDA-MB-231 = tested on: MDA-MB-231
MDA-MB-435 = tested on: MDA-MB-435
MDA-N = tested on: MDA-N
MOLT-4 = tested on: MOLT-4
Malme-3M = tested on: Malme-3M
NCI-H226 = tested on: NCI-H226
NCI-H23 = tested on: NCI-H23
NCI-H460 = tested on: NCI-H460
NCI-H522 = tested on: NCI-H522
NCI/ADR-RES = tested on: NCI/ADR-RES
OVCAR-3 = tested on: OVCAR-3
OVCAR-4 = tested on: OVCAR-4
OVCAR-5 = tested on: OVCAR-5
OVCAR-8 = tested on: OVCAR-8
PC-3 = tested on: PC-3
RPMI-8226 = tested on: RPMI-8226
RXF 393 = tested on: RXF 393
SF-268 = tested on: SF-268
SF-295 = tested on: SF-295
SF-539 = tested on: SF-539
SK-MEL-28 = tested on: SK-MEL-28
SK-MEL-2 = tested on: SK-MEL-2
SK-MEL-5 = tested on: SK-MEL-5
SK-OV-3 = tested on: SK-OV-3
SN12C = tested on: SN12C
SNB-19 = tested on: SNB-19
SNB-75 = tested on: SNB-75
SR = tested on: SR
SW-620 = tested on: SW-620
T47D = tested on: T47D
TK-10 = tested on: TK-10
U-251 = tested on: U-251
UACC-257 = tested on: UACC-257
UACC-62 = tested on: UACC-62
UO-31 = tested on: UO-31

COc1cc(CCNC2=CC(=O)c3nc[nH]c3C2=O)ccc1O
GI50 (786-0): 35.7 µM (inactive)
GI50 (A498): 34.4 µM (inactive)
GI50 (A549): 26.6 µM (inactive)
GI50 (ACHN): 30.3 µM (inactive)
GI50 (BT-549): 24.7 µM (inactive)
GI50 (CAKI-1): 48.3 µM (inactive)
GI50 (CCRF-CEM): 33.3 µM (inactive)
GI50 (COLO 205): 22.6 µM (inactive)
GI50 (DU-145): 20 µM (inactive)
GI50 (EKVX): 21.2 µM (inactive)
GI50 (HCC 2998): 20.7 µM (inactive)
GI50 (HCT-116): 19.6 µM (inactive)
GI50 (HCT-15): 33 µM
GI50 (HL-60): 25.6 µM (inactive)
GI50 (HOP-62): 40.1 µM (inactive)
GI50 (HOP-92): 25.3 µM (inactive)
GI50 (HT-29): 23.6 µM (inactive)
GI50 (Hs-578T): 25.2 µM (inactive)
GI50 (IGROV-1): 23.2 µM (inactive)
GI50 (K562): 34.1 µM (inactive)
GI50 (KM12): 27.3 µM (inactive)
GI50 (LOX IMVI): 19 µM (inactive)
GI50 (M14): 17.5 µM (inactive)
GI50 (MCF7): 17.1 µM (inactive)
GI50 (MDA-MB-231): 30.9 µM (inactive)
GI50 (MDA-MB-435): 17.6 µM (inactive)
GI50 (MDA-N): 18 µM (inactive)
GI50 (MOLT-4): 32.6 µM (inactive)
GI50 (Malme-3M): 13.1 µM (inactive)
GI50 (NCI-H226): 31.5 µM (inactive)
GI50 (NCI-H23): 20.7 µM (inactive)
GI50 (NCI-H460): 25.7 µM (inactive)
GI50 (NCI-H522): 22.7 µM (inactive)
GI50 (NCI/ADR-RES): > 100 µM (inactive)
GI50 (OVCAR-3): 3.16 µM (inactive)
GI50 (OVCAR-4): 15.4 µM (inactive)
GI50 (OVCAR-5): 18.6 µM (inactive)
GI50 (OVCAR-8): 19.6 µM (inactive)
GI50 (PC-3): 26.4 µM (inactive)
GI50 (RPMI-8226): 29.4 µM (inactive)
GI50 (RXF 393): 43.2 µM (inactive)
GI50 (SF-268): 38.9 µM (inactive)
GI50 (SF-295): 28.4 µM (inactive)
GI50 (SF-539): 34.5 µM (inactive)
GI50 (SK-MEL-28): 26.7 µM (inactive)
GI50 (SK-MEL-2): 21.4 µM (inactive)
GI50 (SK-MEL-5): 14.4 µM (inactive)
GI50 (SK-OV-3): 34.4 µM (inactive)
GI50 (SN12C): 19.1 µM (inactive)
GI50 (SNB-19): 18.2 µM (inactive)
GI50 (SNB-75): 19 µM (inactive)
GI50 (SR): 30.7 µM (inactive)
GI50 (SW-620): 23.8 µM (inactive)
GI50 (T47D): 20.7 µM (inactive)
GI50 (TK-10): 36.1 µM (inactive)
GI50 (U-251): 23.7 µM (inactive)
GI50 (UACC-257): 19.8 µM (inactive)
GI50 (UACC-62): 19.2 µM (inactive)
GI50 (UO-31): 40.3 µM (inactive)

CCOP(=O)(OCC)C(c1ccccc1)N(C(=O)NC(F)(F)F)c1ccc(C)cc1 (stereo not drawn)
GI50 (786-0): > 100 µM (inactive)
GI50 (A498): > 100 µM (inactive)
GI50 (A549): > 100 µM (inactive)
GI50 (ACHN): > 100 µM (inactive)
GI50 (BT-549): > 100 µM (inactive)
GI50 (CAKI-1): > 100 µM (inactive)
GI50 (CCRF-CEM): > 100 µM (inactive)
GI50 (COLO 205): > 100 µM (inactive)
GI50 (DU-145): > 100 µM (inactive)
GI50 (EKVX): > 100 µM (inactive)
GI50 (HCC 2998): > 100 µM (inactive)
GI50 (HCT-116): > 100 µM (inactive)
GI50 (HCT-15): > 100 µM
GI50 (HL-60): > 100 µM (inactive)
GI50 (HOP-62): > 100 µM (inactive)
GI50 (HOP-92): 19.1 µM (inactive)
GI50 (HT-29): > 100 µM (inactive)
GI50 (Hs-578T): 69.5 µM (inactive)
GI50 (IGROV-1): > 100 µM (inactive)
GI50 (K562): > 100 µM (inactive)
GI50 (KM12): > 100 µM (inactive)
GI50 (LOX IMVI): > 100 µM (inactive)
GI50 (M14): > 100 µM (inactive)
GI50 (MCF7): > 100 µM (inactive)
GI50 (MDA-MB-231): > 100 µM (inactive)
GI50 (MDA-MB-435): > 100 µM (inactive)
GI50 (MDA-N): > 100 µM (inactive)
GI50 (MOLT-4): > 100 µM (inactive)
GI50 (Malme-3M): > 100 µM (inactive)
GI50 (NCI-H226): > 100 µM (inactive)
GI50 (NCI-H23): > 100 µM (inactive)
GI50 (NCI-H460): > 100 µM (inactive)
GI50 (NCI-H522): > 100 µM (inactive)
GI50 (NCI/ADR-RES): > 100 µM (inactive)
GI50 (OVCAR-3): > 100 µM (inactive)
GI50 (OVCAR-4): > 100 µM (inactive)
GI50 (OVCAR-5): > 100 µM (inactive)
GI50 (OVCAR-8): > 100 µM (inactive)
GI50 (PC-3): > 100 µM (inactive)
GI50 (RPMI-8226): > 100 µM (inactive)
GI50 (RXF 393): > 100 µM (inactive)
GI50 (SF-268): > 100 µM (inactive)
GI50 (SF-295): > 100 µM (inactive)
GI50 (SF-539): > 100 µM (inactive)
GI50 (SK-MEL-28): > 100 µM (inactive)
GI50 (SK-MEL-2): > 100 µM (inactive)
GI50 (SK-MEL-5): > 100 µM (inactive)
GI50 (SK-OV-3): > 100 µM (inactive)
GI50 (SN12C): > 100 µM (inactive)
GI50 (SNB-19): > 100 µM (inactive)
GI50 (SNB-75): > 100 µM (inactive)
GI50 (SR): > 100 µM (inactive)
GI50 (SW-620): > 100 µM (inactive)
GI50 (T47D): 83.4 µM (inactive)
GI50 (TK-10): > 100 µM (inactive)
GI50 (U-251): > 100 µM (inactive)
GI50 (UACC-257): > 100 µM (inactive)
GI50 (UACC-62): > 100 µM (inactive)
GI50 (UO-31): > 100 µM (inactive)
